Test results from patent US20050019746A1, “Apoptosis-related kinase/GPCRs” (EiRx Therapeutics Limited, priority 2003, published 2005).
Entries after “also recorded” stand apart in the source; their conditions may differ.

How the values were obtained:
Type in all cases: cell-based, human
[1] = tested on: HCT15 cells; test: Anchorage Independence/Soft Agar Assay, HCT15; design: PERCENTAGE SURVIVAL RELATIVE TO MS, HCT15, n = 2: tested at 2 µg; PERCENTAGE SURVIVAL RELATIVE TO MS, HCT15, n = 1: tested at 2 µg siRNA; settings: soft agar; for PERCENTAGE SURVIVAL RELATIVE TO MS, HCT15, n = 1: experiment n = 1; for PERCENTAGE SURVIVAL RELATIVE TO MS, HCT15, n = 2: experiment n = 2
How it was run: (§1)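 Cells were transfected for 4 h with 2 μg siRNA against target genes, then seeded at 5×10^4 cells/well in 0.05% agar/medium and grown 12/14 days at 37 °C, 5% CO2. Crystal violet-stained colonies were counted at 4× and morphology assessed; survival expressed relative to missense siRNA control.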

[2] = tested on: cancer cell lines; test: Anchorage Independence/Soft Agar Assay, summary over the cell lines; settings: 14-day anchorage independent assay, over the cell lines examined
Protocol: The Anchorage Independence/Soft Agar Assay allows assessment of the influence of modulation of gene expression on clonal tumouroid formation by observing and quantifying tumouroid morphology and colony number over an extended period of logarithmic growth thereby ascertaining any cell death is induced.
Cells are seeded into a 6-well plate and allowed to adhere overnight at 37° C. in a humidified atmosphere containing 5% CO2 in air. Cells are next transfected with siRNA Oligomers, at a concentration of 2 μg, against the genes of interest. Transfections continued for 4 hrs after which the transfection solution is removed and cells are refed with fresh medium and allowed incubate overnight. Transfected cells are next harvested for seeding into soft agar assay as described below. Cells are seeded at 5×10^4 cells per well of a 6 well plate and incubated over a 12/14-Day period whilst proliferating in a 0.05% Agar/Medium cell suspension at 37° C. in a humidified atmosphere containing 5% CO2 in air. Colonies formed are subsequently stained with Crystal Violet, their morphology is assessed and colonies formed are enumerated at a 4× magnification.
The cytotoxic effect of each gene is determined by a reduction in colony number compared to our MS control, but any influence on the morphology of the colony is also noted.
As an internal reference, the known survival gene ‘Survivin’ was also targeted by siRNA.

[3] = tested on: A549 cells; test: Anchorage Independence/Soft Agar Assay, A549; design: PERCENTAGE SURVIVAL RELATIVE TO MS, A549, n = 2: tested at 2 µg; settings: soft agar; for PERCENTAGE SURVIVAL RELATIVE TO MS, A549, n = 1: experiment n = 1; for PERCENTAGE SURVIVAL RELATIVE TO MS, A549, n = 2: experiment n = 2
How it was run: as §1

[4] = tested on: MCF7 cells; test: Anchorage Independence/Soft Agar Assay, MCF7; design: PERCENTAGE SURVIVAL RELATIVE TO MS, MCF7, n = 2: tested at 2 µg; settings: soft agar; for PERCENTAGE SURVIVAL RELATIVE TO MS, MCF7, n = 1: experiment n = 1; for PERCENTAGE SURVIVAL RELATIVE TO MS, MCF7, n = 2: experiment n = 2
How it was run: as §1

[5] = tested on: target gene mRNA in PC3 cells; test: Validation of siRNA efficacy by QPCR in PC3 cells; settings: PC3, siRNA 50 nM, RNAiFect, 24 hours post transfection, relative to non-silencing control, normalised to GAPDH
Protocol: To evaluate the ability of each siRNA oligonucleotides to knock down its intended target, each siRNA was validated in a cell line known to express the target, in this example the genes were tested PC3 cells, which were shown by expression profiling to express all target genes. The efficacy of knockdown was measured using QPCR. Cells are plated at a density of 2×10^4 cells in each well of a 24 well plate and incubated at 37° C. overnight. The siRNA is transfected into cells using RNAiFect reagent (Qiagen) with siRNA at a concentration of 50 nM according to manufacturer's instructions. Additional wells of cells are transfected with 50 nM of a non-silencing control (Qiagen). […] Transfected cells are harvested at 24 hours post transfection, and RNA extracted using RNeasy Miniprep columns with an on-column DNase digestion step. The RNA is eluted in 30 μl of RNase-free H2O. cDNA is synthesised from 12 μl of this RNA using an anchored oligo(dT) primer (Sigma) and Transcriptor reverse transcriptase (Roche) at 55° C. in a total volume of 20 μl following the manufacturer's instructions. The resulting cDNA is diluted to a total of 200 μl with H2O and 10 μl used in each QPCR reaction. The levels of transcript are compared by QPCR, relative to the non-silencing control. QPCR is performed using primers, conditions and methodology identical to those used for expression profiling, see Table 8. All reactions were performed in duplicate and the average Ct values calculated. For each sample, the Ct of each target gene in normalised to GAPDH. Relative expression between cells transfected with target or non-silencing siRNA, normalised to GAPDH expression, is determined by the comparative Ct method.

| Substance | PERCENTAGE SURVIVAL RELATIVE TO MS, HCT15, n = 1 [1] [%] | PERCENTAGE SURVIVAL RELATIVE TO MS, HCT15, n = 2 [1] [%] | cell death / apoptosis in the soft agar assay [2] | PERCENTAGE SURVIVAL RELATIVE TO MS, A549, n = 1 [3] [%] | PERCENTAGE SURVIVAL RELATIVE TO MS, A549, n = 2 [3] [%] | PERCENTAGE SURVIVAL RELATIVE TO MS, MCF7, n = 1 [4] [%] | PERCENTAGE SURVIVAL RELATIVE TO MS, MCF7, n = 2 [4] [%] | Decrease in expression of target gene [5] [%] |
| --- | --- | --- | --- | --- | --- | --- | --- | --- |
| siRNA MPSK1: sense GGGUUAUGCCCACAGAGACtt, antisense GUCUCUGUGGGCAUAACCCtt (sense GGGUUAUGCCCACAGAGACTT; antisense GUCUCUGUGGGCAUAACCCTT; chemistry not given here) | 42.3 | 62.2 | significant cell death in all cell lines | 59.4 | 19.5 | 35.8 | 30.3 |  |
| siRNA ROCK: siRNA duplex, sense UACAUGCCUGGUGGAGAUCtt, antisense GAUCUCCACCAGGCAUGUAtt; same in Tables 9 and 11 (sense UACAUGCCUGGUGGAGAUCTT; antisense GAUCUCCACCAGGCAUGUATT; chemistry not given here) |  |  |  |  |  |  |  | 65.0 |
| siRNA EKI: siRNA duplex, sense GCACUGGAUCCAAAGCAUGtt, antisense CAUGCUUUGGAUCCAGUGCtt; same in Tables 9 and 11 (sense GCACUGGAUCCAAAGCAUGTT; antisense CAUGCUUUGGAUCCAGUGCTT; chemistry not given here) |  |  |  |  |  |  |  | 76.0 |
| siRNA MKNK: sense UACAUGGCCCCUGAGGUAGtt, antisense CUACCUCAGGGGCCAUGUAtt (sense UACAUGGCCCCUGAGGUAGTT; antisense CUACCUCAGGGGCCAUGUATT; chemistry not given here) | 66.3 | 90.9 | induced cell death consistently in 2 of the cell lines examined | 85 | 21.6 | 25.9 | 4 |  |
| siRNA GRAF: siRNA duplex, sense GCGGAAGUUUGCAGAUUCCtt, antisense GGAAUCUGCAAACUUCCGCtt; same in Tables 9 and 11 (sense GCGGAAGUUUGCAGAUUCCTT; antisense GGAAUCUGCAAACUUCCGCTT; chemistry not given here) |  |  |  |  |  |  |  | 64.5 |
| siRNA Survivin: positive control siRNA, sense GAACUGGCCCUUCUUGGAGtt, antisense CUCCAAGAAGGGCCAGUUCtt (sense GAACUGGCCCUUCUUGGAGTT; antisense CUCCAAGAAGGGCCAGUUCTT; chemistry not given here) [reference compound] | 71.5 | 48.6 | induced cell death in all cell lines | 53 | 17.7 | 80.3 | 50.3 | 82.2 |
| siRNA PSKH1: sense GAACCUGCACCGCUCCAUAtt, antisense UAUGGAGCGGUGCAGGUUCtt (sense GAACCUGCACCGCUCCAUATT; antisense UAUGGAGCGGUGCAGGUUCTT; chemistry not given here) | 37.2 | 41 | modulates apoptosis; also recorded: significant cell death in all cell lines | 65.8 | 32.5 | 82.6 | 11.9 |  |
| siRNA NTKL: siRNA duplex, sense UGUGGAGCUGAUGAAGCACtt, antisense GUGCUUCAUCAGCUCCACAtt; same in Tables 9 and 11 (sense UGUGGAGCUGAUGAAGCACTT; antisense GUGCUUCAUCAGCUCCACATT; chemistry not given here) |  |  |  |  |  |  |  | 82.9 |
